Laboratory results published in PMC3681751, “Identification of a Novel Antimicrobial Peptide from Human Hepatitis B Virus Core Protein Arginine-Rich Domain (ARD)” (PLoS Pathogens, 2013).
Where two headings read alike, the source gives them in different places. Residues, ends and D or L forms follow the SMILES beside them.

How the values were obtained:
S. aureus (ATCC 19636) = type: cell-based, Staphylococcus aureus
Summary of the method: (§1)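 Mid-log cultures grown in Mueller–Hinton broth were diluted to 10^6 CFU/ml in 10 mM sodium phosphate, 50 mM NaCl, pH 7.2, mixed with serially diluted HBc ARD peptides, and held 3 hours at 37°C without shaking. Survivors were plated on Mueller–Hinton agar overnight at 37°C to define MBC; triplicates.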

S. aureus (ATCC 29213) = type: cell-based, Staphylococcus aureus
Summary of the method: as §1

S. aureus (ATCC 25923) = type: cell-based, Staphylococcus aureus
Summary of the method: as §1

Huh 7 cells = assay: Peptide uptake into mammalian cells; type: cell-based, human; conditions: data not shown
HepG2 cells = assay: Peptide uptake into mammalian cells; type: cell-based, human; conditions: data not shown
Method: To set up CFSE cell proliferation assay, 293 cells (human kidney origin) and Vero cells (monkey kidney origin) were resuspended in PBS to a final concentration of 10^6 cells/ml, before incubation with 10 µM CFSE dye (CellTrace CFSE cell proliferation kit, Invitrogen) at 37°C for 10 min. To quench the staining, ice-old culture media were then added and incubated on ice for 5 min. Labeled cells were then pelleted and washed three times by fresh medium containing 10% FBS before seeding into six well plates at a density of 3.3×10^5cells/well. After 20 h, the medium was removed and incubated with fresh medium containing 5, 25 and 100 µM HBc 147-183 for one hour (FITC-labeled ARD peptide had been largely internalized in 10 minutes after the addition of ARD peptides to the medium of HepG2 cells). Forty-eight hours later, cells were harvested and analyzed by flow cytometry (FACSCanto, BD Bioscience).

[1] = test system: K. pneumonia (ATCC 13884); type: cell-based, Klebsiella pneumoniae; conditions: 3 h at 37°C in phosphate buffer pH 7.2; triplicate
P. aeruginosa = assay: SYTOX Green uptake (membrane permeabilization); type: cell-based, Pseudomonas aeruginosa; conditions: 2 µM peptide; 10^7 CFU, 1 µM SYTOX Green, 37°C, ex 485 nm/em 520 nm
Method: Briefly, bacteria (10^7 CFU) were prepared and mixed with 1 µM SYTOX Green (Invitrogen) for 15 minutes in the dark. […] Melittin (Sigma), the major toxin of bee venom, was used as a positive control to provide maximal permeabilization.

[2] = test system: Staphylococcus aureus ATCC 19636; assay: Sepsis survival model, i.p. inoculation; type: in vivo; conditions: 4×10^6 CFU/mouse i.p., n = 10
Method: Three-week old male ICR mice (19 to 21 g) were purchased from BioLASCO (Taiwan). Overnight culture of bacteria in BHI broth (Difco) was subcultured in fresh BHI broth to log phase. Inoculums were diluted in BHI broth to indicated densities. To test the acute toxicity of ARD peptide in vivo, ICR male mice were inoculated intraperitoneally (i.p.) with 10 and 20 mg/kg HBc147-183 in PBS, respectively. Each group contained 5 mice. After peptide injection, the number of dead mice was recorded daily for 7 days post-injection. To test the antimicrobial activity of the ARD peptide in vivo, all mice were inoculated i.p. with Staphylococcus aureus ATCC 19636 (4×10^6 CFU/mouse) in BHI broth. Peptide HBc147-183 (10 mg/kg) was administered i.p. at 1, 1.5 and 2 hours post-inoculation. PBS (10 ml/kg) control was administered at 1 hour post-inoculation. […] Mortality was monitored daily for 7 days post-inoculation. […] The mice were anesthetized first before transferring to the IVIS imaging system (IVIS spectrum), and luminescence was measured with an exposure time of 1 minutes or less. The image system measured the number of photons and translated the data to false color images that depicted the region of strong luminescence with red, moderate luminescence with yellow and green, and mild luminescence with blue. […] Total flux (RLU) of region of interest (ROI) was quantified by the IVIS imaging software.

E. coli = assay: Killing kinetics; type: cell-based, Escherichia coli; conditions: 4 µM peptide (1×MBC), 37°C, triplicates
Method: For measurement of killing kinetics, bacteria and peptides were prepared as described above. Fifty µl of bacteria were mixed with fifty µl of peptides at the concentrations corresponding to MBC and were incubated at 37°C. At the indicated time, bacteria were serially diluted and placed on Mueller-Hinton broth agar plates for the viability measurement.

[3] = methicillin-resistant strain, 3 h at 37°C in phosphate buffer pH 7.2, triplicate

Which “MBC against S. aureus” value (S. aureus (ATCC 19636); ATCC 19636, 3 h) does the source give for `CC(C)[C@H](NC(=O)[C@@H](NC(=O)[C@@H](N)[C@@H](C)O)C(C)C)C(=O)N[C@@H](CCCNC(=N)N)C(=O)N[C@@H](CCCNC(=N)N)C(=O)N[C@@H](CCCNC(=N)N)C(=O)NCC(=O)N[C@@H](CCCNC(=N)N)C(=O)N[C@@H](CO)C(=O)N1CCC[C@H]1C(=O)N[C@@H](CCCNC(=N)N)C(=O)N[C@@H](CCCNC(=N)N)C(=O)N[C@@H](CCCNC(=N)N)C(=O)N[C@H](C(=O)N1CCC[C@H]1C(=O)N[C@@H](CO)C(=O)N1CCC[C@H]1C(=O)N[C@@H](CCCNC(=N)N)C(=O)N[C@@H](CCCNC(=N)N)C(=O)N[C@@H](CCCNC(=N)N)C(=O)N[C@@H](CCCNC(=N)N)C(=O)N[C@@H](CO)C(=O)N[C@@H](CCC(N)=O)C(=O)N[C@@H](CO)C(=O)N1CCC[C@H]1C(=O)N[C@@H](CCCNC(=N)N)C(=O)N[C@@H](CCCNC(=N)N)C(=O)N[C@@H](CCCNC(=N)N)C(=O)N[C@@H](CCCNC(=N)N)C(=O)N[C@@H](CO)C(=O)N[C@@H](CCC(N)=O)C(=O)N[C@@H](CO)C(=O)N[C@@H](CCCNC(=N)N)C(=O)N[C@@H](CCC(=O)O)C(=O)N[C@@H](CO)C(=O)N[C@@H](CCC(N)=O)C(=O)N[C@@H](CS)C(=O)O)[C@@H](C)O` [HBc147-183] (H-TVVRRRGRSPRRRTPSPRRRRSQSPRRRRSQSRESQC-OH; N-terminus and C-terminus assumed) here?
The value was “around 4 µM”.

And the “Antimicrobial activity, MBC” value (S. aureus (ATCC 19636); ATCC 19636, 3 h, pH 7.2)?
Its value is 4 µM.

And the “Antimicrobial activity, MBC” value (S. aureus (ATCC 19636); [3])?
Its value is 18.36 µg/mL.

What about the “Antimicrobial activity, MBC” value (S. aureus (ATCC 29213); ATCC 29213, 3 h, pH 7.2) of the same compound?
Its value is 4 µM.

And the “Antimicrobial activity, MBC” value (S. aureus (ATCC 29213); [3])?
The value was 18.36 µg/mL.

What about the “Antimicrobial activity, MBC” value (S. aureus (ATCC 25923); ATCC 25923, 3 h, pH 7.2) of the same compound?
Its value is 4 µM.

What about the “Antimicrobial activity, MBC” value (S. aureus (ATCC 25923); [3]) of the same compound?
The value was 18.36 µg/mL.

And the “Penetration through the cell membrane” value (Huh 7 cells)?
Its value is “can penetrate through the cell membrane”.

And the “Penetration through the cell membrane” value (HepG2 cells)?
Its value is “can penetrate through the cell membrane”.

And the “Antimicrobial activity, MBC” value [1]?
The value was 9.18 µg/mL.

What about the “Membrane permeabilization (SYTOX Green uptake)” value (P. aeruginosa) of the same compound?
The value was “significant degree of membrane permeabilization”.

What about the “Survival rate after 7 days” value ([2]; 10 mg/kg i.p. at 1.5 h post-inoculation) of the same compound?
Its value is 70%.

What about the “Survival rate after 7 days” value ([2]; 10 mg/kg i.p. at 2 h post-inoculation (peak of bacterial load in blood)) of the same compound?
The value was 40%.

What about the “Time to complete killing” value (E. coli) of the same compound?
The value was 180 min.
